How the values were obtained:
[1] = target: T1, cannabinoid receptor 1 (CB1) (Homo sapiens, UniProt P21554); test: GTPase-Glo GTP turnover assay with purified CB1 and Gi1, […] ligand; assay type: biochemical
Target sequence in this assay (P21554 whole entry): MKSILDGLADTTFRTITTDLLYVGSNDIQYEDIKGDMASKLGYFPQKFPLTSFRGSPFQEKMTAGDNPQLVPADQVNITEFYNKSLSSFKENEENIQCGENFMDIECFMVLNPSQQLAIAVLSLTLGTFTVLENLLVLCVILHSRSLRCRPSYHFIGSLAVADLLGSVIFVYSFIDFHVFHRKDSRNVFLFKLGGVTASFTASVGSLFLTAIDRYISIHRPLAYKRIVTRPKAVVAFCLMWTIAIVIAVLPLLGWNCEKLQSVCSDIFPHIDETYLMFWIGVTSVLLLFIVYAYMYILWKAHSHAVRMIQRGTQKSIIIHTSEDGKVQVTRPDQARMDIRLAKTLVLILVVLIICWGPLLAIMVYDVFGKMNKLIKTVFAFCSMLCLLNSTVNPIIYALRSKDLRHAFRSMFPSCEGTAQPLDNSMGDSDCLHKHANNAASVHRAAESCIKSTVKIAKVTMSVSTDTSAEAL
Target sequence in this assay (P63096 2-354 partner): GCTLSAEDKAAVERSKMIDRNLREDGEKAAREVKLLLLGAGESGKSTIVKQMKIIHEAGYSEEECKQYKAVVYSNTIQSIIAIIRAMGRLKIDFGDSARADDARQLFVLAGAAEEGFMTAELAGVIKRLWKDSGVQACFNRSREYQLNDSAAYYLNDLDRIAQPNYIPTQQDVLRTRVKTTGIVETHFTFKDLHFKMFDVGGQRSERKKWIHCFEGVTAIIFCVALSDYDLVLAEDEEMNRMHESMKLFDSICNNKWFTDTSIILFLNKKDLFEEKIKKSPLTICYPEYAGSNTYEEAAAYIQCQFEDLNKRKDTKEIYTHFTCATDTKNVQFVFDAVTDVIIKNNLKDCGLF

[2] = target: T1, cannabinoid receptor 1 (CB1); test: CB1 radioligand binding assay
Target sequence in this assay (P21554 whole entry): as the sequence (P21554 whole entry) above

Compound	GTPase-Glo GTP turnover assay with purified CB1 and Gi1, 20 uM ligand [1]	IC50 [2]
C[C@H](NC(=O)C(C)(C)Oc1ccc(C(F)(F)F)cn1)[C@@H](Cc1ccc(Cl)cc1)c1cccc(C#N)c1 [taranabant]	GTPase-Glo assay reveals rimonabant and taranabant to decrease GTP turnover compared with Apo	
BODIPY517/547-genistein		375 nM
